The results in this text go back to US11160790B2, “Method of inhibiting Cryptococcus growth using eltrombopag” (priority 2019, dated 2021).

Converted amounts (≈) assume the structure as drawn.

Assay [1] relates to multiple C. neoformans/C. gattii. The experiment in a line: Microdilution assay, summary for Cryptococcus species. Format: cell-based. As to the method:
Cryptococcus and Candida species were cultured in yeast extract-peptone-dextrose (YPD) medium (containing 1% yeast extract, 2% peptone, 2% glucose, and optionally 2% agar for preparation of an agar plate). Aspergillus, Fusarium, and Trichophyton species were cultured on potato dextrose agar (PDA) plate (containing 2% potato infusion, […], and 1.5% agar). A microdilution assay was performed to determine minimum inhibitory concentration (MIC), minimum fungicidal concentration (MFC), and fractional inhibitory concentration (FIC) index (FICI) using RPMI 1640 medium buffered with MOPS. […]
To investigate the inhibitory effects of eltrombopag on the growth of fungi, microdilution assays (based on the CLSI standards M27-A3 and M38-A2) were performed with multiple pathogenic yeasts and filamentous fungi including Cryptococcus, Candida, Aspergillus, Fusarium, and Trichophyton (TABLE 1). […] Thereafter, 3 μL of the fungal culture from each well of the 96-well plates was spotted onto eltrombopag-free YPD (for yeasts) or PDA (for filamentous fungi) agar plates, which were then incubated at 35° C. for 48 hours to examine colony formation Minimum fungicidal concentration (MFC) was determined to be the lowest drug concentration at which no colonies formed. […]
(In general: Dilution methods test growth across graded concentrations, often in twofold steps.)

In assay [2] the test system is C. neoformans H99. The experiment in a line: Disk diffusion susceptibility assay. It counts as cell-based, Cryptococcus neoformans. To be noted: 10 μg per disk; 25° C., 30° C. or 37° C., 48 hours. As to the method: A disk diffusion susceptibility assay was performed to further investigate the fungistatic activity of eltrombopag at different temperatures. Briefly, C. neoformans […] or C. deuterogattii 8265 was cultured overnight at 30° C., and 100 μL of the culture (at an OD600 of about 0.1) was spread on RPMI 1640 agar plates. Paper disks (with a diameter of 6 mm) were then placed on these agar plates, and either 10 μg eltrombopag (dissolved in 5 μL DMSO) or 5 μL DMSO (control) was added to each disk. The agar plates were incubated at 25° C., 30° C., or 37° C. for 48 hours and photographed.
(In general: In agar diffusion tests the substance spreads into inoculated agar from a disc or well.)

Assay [3] has as its system C. neoformans H99. Description: XTT-reduction assay of biofilm metabolic activity. Format: cell-based, Cryptococcus neoformans. Here is the method: Cryptococcus biofilms, which are composed of Cryptococcus cells and extracellular matrix, enhance the tolerance of Cryptococcus to antifungal agents (such as amphotericin B) and host defense mechanisms. To assess whether eltrombopag impacts biofilm formation in Cryptococcus, an XTT-reduction assay was used to measure the metabolic activity of C. neoformans cells treated with eltrombopag at 37° C. Briefly, C. neoformans […] cells were cultured in YPD medium at 30° C. overnight. The cells were washed twice with phosphate buffered saline (PBS) and resuspended in RPMI 1640 medium with or without eltrombopag at the indicated concentrations. The cell suspension (0.0005 OD600/mL) was added to a 96-well polystyrene plate and incubated at 37° C. for 24 or 48 hours. […] After incubation, the cells were washed three times with PBS and subjected to XTT reduction assay to quantify formazan formation by measuring the light absorbance at 492 nm. The experiments were performed in triplicate, and the results were presented as mean±standard deviation. Statistical significance for the data sets was determined using a two-tailed t test.
(Tetrazolium dyes change colour on reduction, which living cells bring about.)

Assay [4] concerns C. neoformans H99. The experiment in a line: Capsule size assay (India ink). It counts as cell-based, Cryptococcus neoformans. To be noted: 0.06 mg/L, 37° C., 48 hours, versus no eltrombopag treatment. As to the method:
(§1) Cryptococcus and Candida species were cultured in yeast extract-peptone-dextrose (YPD) medium (containing 1% yeast extract, 2% peptone, 2% glucose, and optionally 2% agar for preparation of an agar plate). Aspergillus, Fusarium, and Trichophyton species were cultured on potato dextrose agar (PDA) plate (containing 2% potato infusion, […], and 1.5% agar). A microdilution assay was performed to determine minimum inhibitory concentration (MIC), minimum fungicidal concentration (MFC), and fractional inhibitory concentration (FIC) index (FICI) using RPMI 1640 medium buffered with MOPS. Minimal medium (containing 15 mM glucose, 10 mM magnesium sulfate, 29.4 mM potassium dihydrogen phosphate, 13 mM glycine, and 3 μM thiamine hydrochloride; pH 5.5) was used for capsule size assay and melanization assay.
Cryptococcus capsule, the structure attached to the outer surface of the cell wall and mainly composed of polysaccharides, can increase the resistance of Cryptococcus to host immune response (such as phagocytosis by macrophages) and harsh conditions (such as extreme acidity or alkalinity, high CO2 levels, or iron deprivation). To test whether eltrombopag affects capsule formation in Cryptococcus, C. neoformans H99 and C. deuterogattii R265 cells were cultured overnight in YPD media at 30° C. […] Statistical significance for the data sets was determined using a two-tailed t test.

The test system of assay [5] is C. neoformans H99. Description: Melanization assay (L-DOPA). Format: cell-based, Cryptococcus neoformans. The following applies: 0.03 mg/L (¼ MIC) or 0.06 mg/L (½ MIC); 1 mM L-DOPA, 30° C. As to the method:
as §1
Melanin protects Cryptococcus from toxic free radicals produced by the host defense system, and thus melanin production is important for the pathogenicity of Cryptococcus. To study whether eltrombopag has an effect on melanin production in Cryptococcus, 5×10^4 C. neoformans H99 cells were cultured in minimal medium (abbreviated as MM) with or without 1 mM L-DOPA in the presence or absence of eltrombopag. The flasks containing the cultures were wrapped in foil to prevent L-DOPA auto-polymerization. […]

The MIC is the smallest concentration in the dilution series that meets the test's criterion for growth inhibition. A low value points to a more susceptible organism. In assay [1] (35° C.), `CC1=NN(c2ccc(C)c(C)c2)C(=O)/C1=N\Nc1cccc(-c2cccc(C(=O)O)c2)c1O` [eltrombopag] came in with a minimum inhibitory concentration (MIC) of approximately 0.125 µg/mL (≈ 0.283 µM). Further, the MFCs entry in assay [1] (Cryptococcus species) is listed as “higher than 64 mg/L”. For the same compound, the inhibition zones result in the assay with C. neoformans H99 [2] is “significantly larger inhibition zones were observed at 37 °C”. In addition, in the assay on C. neoformans H99 [3] (0.125 mg/L, 37° C., 24 hours), the “reduction of metabolic activity compared to the control group” value is recorded as “more than 70%”. Besides, the “biofilm formation (metabolic activity, OD492)” value with C. neoformans H99 [3] (two-fold serially diluted from 4 to 0.015 mg/L, 48 hours) is on record as “inhibited the formation of C. neoformans biofilms in a dose-dependent manner”. Besides, the capsule size entry in the assay with C. neoformans H99 [4] is given as “capsule size significantly reduced”. The melanin production result in the assay with C. neoformans H99 [5] is recorded as “melanin production in C. neoformans reduced”.
